Three molecules from ChEMBL document CHEMBL5696442, “Discovery of type II inhibitors of TGFβ-activated kinase 1 (TAK1) and mitogen-activated protein kinase kinase kinase kinase 2 (MAP4K2)” (J Med Chem, 2015) can be followed below.

Experiment [1] deals with Protein kinase C beta type (Homo sapiens) (UniProt P05771). Put plainly: Inhibition of PKCb Lys2 labeling site in human Huh-7 cell lysate at 1 uM by KiNativ Profiling analysis relative to control. Type of experiment: subcellular.
Experiment [2] addresses T1, Serine/threonine-protein kinase TBK1 (Homo sapiens) (UniProt Q9UHD2).
T1 sequence (whole entry): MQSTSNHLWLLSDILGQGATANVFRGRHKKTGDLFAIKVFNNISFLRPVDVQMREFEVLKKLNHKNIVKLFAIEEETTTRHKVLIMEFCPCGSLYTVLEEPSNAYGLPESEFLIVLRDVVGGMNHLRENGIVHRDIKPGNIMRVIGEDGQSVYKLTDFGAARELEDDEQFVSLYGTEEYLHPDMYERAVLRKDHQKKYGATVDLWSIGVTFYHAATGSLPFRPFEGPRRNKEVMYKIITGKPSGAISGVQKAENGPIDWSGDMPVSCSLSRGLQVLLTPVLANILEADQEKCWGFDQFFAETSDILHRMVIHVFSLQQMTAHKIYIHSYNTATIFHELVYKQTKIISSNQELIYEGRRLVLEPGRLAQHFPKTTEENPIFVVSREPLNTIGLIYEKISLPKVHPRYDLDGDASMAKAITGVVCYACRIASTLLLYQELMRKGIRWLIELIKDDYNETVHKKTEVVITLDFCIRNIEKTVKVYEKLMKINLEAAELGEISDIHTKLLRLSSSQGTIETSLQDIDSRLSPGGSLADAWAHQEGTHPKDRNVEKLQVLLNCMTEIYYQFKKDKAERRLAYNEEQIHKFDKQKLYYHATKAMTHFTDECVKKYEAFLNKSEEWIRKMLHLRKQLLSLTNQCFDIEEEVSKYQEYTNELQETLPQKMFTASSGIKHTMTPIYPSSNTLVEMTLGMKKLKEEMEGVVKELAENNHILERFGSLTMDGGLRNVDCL
The experiment can be described thus: Inhibition of TBK1 Lys1 labeling site in human Huh-7 cells at 1 uM by KiNativ Profiling analysis relative to control. Type of experiment: cell-based.

Experiment [3] concerns the target eIF-2-alpha kinase GCN2 (Homo sapiens) (UniProt Q9P2K8). Put plainly: Inhibition of GCN2 domain2 Lys2 labeling site in human A-375 cells at 0.5 uM by KiNativ Profiling analysis relative to control. Type of experiment: cell-based.
The target in experiment [4] is Receptor tyrosine-protein kinase erbB-3 (Homo sapiens) (UniProt P21860). The experiment can be described thus: Inhibition of HER3/ErbB3 Lys1 labeling site in human A-375 cells at 0.05 uM by KiNativ Profiling analysis relative to control. Type of experiment: cell-based.
Chain of Receptor tyrosine-protein kinase erbB-3 (Homo sapiens) (P21860 whole entry): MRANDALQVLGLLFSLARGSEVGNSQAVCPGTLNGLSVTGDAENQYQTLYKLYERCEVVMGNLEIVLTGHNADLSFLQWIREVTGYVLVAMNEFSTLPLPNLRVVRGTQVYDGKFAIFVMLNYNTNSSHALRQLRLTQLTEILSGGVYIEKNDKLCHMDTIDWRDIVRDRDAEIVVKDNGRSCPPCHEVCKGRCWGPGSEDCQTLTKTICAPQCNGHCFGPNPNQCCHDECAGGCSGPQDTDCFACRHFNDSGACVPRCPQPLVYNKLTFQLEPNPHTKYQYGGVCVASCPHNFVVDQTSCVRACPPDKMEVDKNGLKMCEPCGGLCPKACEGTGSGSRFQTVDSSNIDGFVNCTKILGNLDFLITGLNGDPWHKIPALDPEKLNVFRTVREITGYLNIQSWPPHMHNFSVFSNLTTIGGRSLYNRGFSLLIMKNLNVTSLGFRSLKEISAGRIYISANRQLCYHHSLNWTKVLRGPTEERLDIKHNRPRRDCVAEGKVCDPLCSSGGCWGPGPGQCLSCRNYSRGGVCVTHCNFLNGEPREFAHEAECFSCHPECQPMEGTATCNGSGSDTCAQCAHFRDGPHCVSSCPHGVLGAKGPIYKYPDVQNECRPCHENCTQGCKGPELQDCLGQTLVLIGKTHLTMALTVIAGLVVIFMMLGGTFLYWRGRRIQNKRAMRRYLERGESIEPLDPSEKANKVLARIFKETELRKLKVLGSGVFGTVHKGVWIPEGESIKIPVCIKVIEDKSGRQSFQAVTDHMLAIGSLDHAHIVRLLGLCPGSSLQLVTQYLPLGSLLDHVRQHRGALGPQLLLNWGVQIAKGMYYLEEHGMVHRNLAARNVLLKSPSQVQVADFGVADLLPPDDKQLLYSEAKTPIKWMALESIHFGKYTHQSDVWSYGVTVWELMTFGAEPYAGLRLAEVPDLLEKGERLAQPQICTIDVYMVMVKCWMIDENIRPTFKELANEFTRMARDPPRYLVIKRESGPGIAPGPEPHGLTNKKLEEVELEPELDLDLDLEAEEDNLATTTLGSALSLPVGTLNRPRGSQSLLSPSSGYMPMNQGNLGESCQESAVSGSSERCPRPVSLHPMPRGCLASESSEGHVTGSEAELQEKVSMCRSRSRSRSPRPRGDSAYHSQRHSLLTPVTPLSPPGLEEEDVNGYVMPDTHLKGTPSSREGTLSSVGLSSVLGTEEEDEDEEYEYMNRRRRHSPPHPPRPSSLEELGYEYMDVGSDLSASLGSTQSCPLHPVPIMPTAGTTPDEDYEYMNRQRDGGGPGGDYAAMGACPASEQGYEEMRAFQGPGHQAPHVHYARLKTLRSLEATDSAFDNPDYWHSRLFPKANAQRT
Experiment [5] addresses Serine/threonine-protein kinase MARK1 (Homo sapiens) (UniProt Q9P0L2). Put plainly: Inhibition of MARK1 (unknown origin) at 10 uM by Ambit Kinomescan binding assay.
Experiment [6] can be described thus: Inhibition of KHS1 K2 labeling site in human Huh-7 cells at 10 uM by KiNativ Profiling analysis relative to control. The note with it: condition cancer.
In experiment [7] the target is T2, Serine/threonine-protein kinase Nek1 (Homo sapiens) (UniProt Q96PY6).
T2 sequence (whole entry): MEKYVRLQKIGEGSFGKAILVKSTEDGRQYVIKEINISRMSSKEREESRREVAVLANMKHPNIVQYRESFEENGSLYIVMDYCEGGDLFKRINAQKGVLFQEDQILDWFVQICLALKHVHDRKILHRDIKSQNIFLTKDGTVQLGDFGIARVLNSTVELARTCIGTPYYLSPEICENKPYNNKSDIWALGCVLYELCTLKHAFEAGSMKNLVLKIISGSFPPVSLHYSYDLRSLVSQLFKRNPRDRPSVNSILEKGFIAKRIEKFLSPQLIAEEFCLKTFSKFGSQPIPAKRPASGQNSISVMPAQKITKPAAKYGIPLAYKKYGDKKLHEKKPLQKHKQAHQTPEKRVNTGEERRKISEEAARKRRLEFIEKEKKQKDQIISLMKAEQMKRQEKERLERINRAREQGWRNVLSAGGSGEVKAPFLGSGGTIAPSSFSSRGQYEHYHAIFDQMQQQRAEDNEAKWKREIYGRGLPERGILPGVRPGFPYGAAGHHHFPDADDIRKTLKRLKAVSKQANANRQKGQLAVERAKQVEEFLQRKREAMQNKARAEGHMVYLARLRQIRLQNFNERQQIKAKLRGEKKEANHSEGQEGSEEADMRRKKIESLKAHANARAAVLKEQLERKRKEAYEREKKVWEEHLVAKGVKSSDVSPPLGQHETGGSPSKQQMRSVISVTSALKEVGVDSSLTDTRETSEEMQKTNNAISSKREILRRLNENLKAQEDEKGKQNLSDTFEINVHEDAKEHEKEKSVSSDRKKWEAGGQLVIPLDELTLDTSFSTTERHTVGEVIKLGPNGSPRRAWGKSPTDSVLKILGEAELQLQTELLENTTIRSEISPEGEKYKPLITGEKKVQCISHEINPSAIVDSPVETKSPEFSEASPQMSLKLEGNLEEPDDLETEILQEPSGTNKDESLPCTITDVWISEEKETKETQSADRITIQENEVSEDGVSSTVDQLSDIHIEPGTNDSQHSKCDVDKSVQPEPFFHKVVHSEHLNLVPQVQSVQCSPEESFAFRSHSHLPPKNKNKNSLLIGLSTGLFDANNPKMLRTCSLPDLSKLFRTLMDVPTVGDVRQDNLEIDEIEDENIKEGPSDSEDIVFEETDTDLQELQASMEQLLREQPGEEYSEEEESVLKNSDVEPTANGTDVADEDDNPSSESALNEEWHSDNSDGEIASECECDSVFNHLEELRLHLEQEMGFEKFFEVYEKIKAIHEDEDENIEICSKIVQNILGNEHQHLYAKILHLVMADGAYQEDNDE
Put plainly: Inhibition of NEK1 K2 labeling site in human Huh-7 cells at 10 uM by KiNativ Profiling analysis relative to control. Type of experiment: cell-based.

For experiment [8], the target named is Serine/threonine-protein kinase Nek6 (Homo sapiens) (UniProt Q9HC98). The experiment can be described thus: Inhibition of NEK6 ACT labeling site in human Huh-7 cells at 10 uM by KiNativ Profiling analysis relative to control. Type of experiment: cell-based.
Chain of Serine/threonine-protein kinase Nek6 (Homo sapiens) (Q9HC98 whole entry): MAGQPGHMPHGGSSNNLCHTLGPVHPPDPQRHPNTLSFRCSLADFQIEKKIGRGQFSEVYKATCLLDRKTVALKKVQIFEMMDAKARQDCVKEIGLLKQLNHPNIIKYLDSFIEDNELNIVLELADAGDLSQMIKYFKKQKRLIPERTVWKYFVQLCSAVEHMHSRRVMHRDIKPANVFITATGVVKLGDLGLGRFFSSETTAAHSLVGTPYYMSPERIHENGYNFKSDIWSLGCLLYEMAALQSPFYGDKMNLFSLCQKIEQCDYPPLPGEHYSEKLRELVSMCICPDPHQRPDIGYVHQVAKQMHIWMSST

The structures appear in SMILES notation. The source made the active and inactive calls. The rule behind the calls is not given here.

Chain of Protein kinase C beta type (Homo sapiens) (P05771 2-671 limits assumed): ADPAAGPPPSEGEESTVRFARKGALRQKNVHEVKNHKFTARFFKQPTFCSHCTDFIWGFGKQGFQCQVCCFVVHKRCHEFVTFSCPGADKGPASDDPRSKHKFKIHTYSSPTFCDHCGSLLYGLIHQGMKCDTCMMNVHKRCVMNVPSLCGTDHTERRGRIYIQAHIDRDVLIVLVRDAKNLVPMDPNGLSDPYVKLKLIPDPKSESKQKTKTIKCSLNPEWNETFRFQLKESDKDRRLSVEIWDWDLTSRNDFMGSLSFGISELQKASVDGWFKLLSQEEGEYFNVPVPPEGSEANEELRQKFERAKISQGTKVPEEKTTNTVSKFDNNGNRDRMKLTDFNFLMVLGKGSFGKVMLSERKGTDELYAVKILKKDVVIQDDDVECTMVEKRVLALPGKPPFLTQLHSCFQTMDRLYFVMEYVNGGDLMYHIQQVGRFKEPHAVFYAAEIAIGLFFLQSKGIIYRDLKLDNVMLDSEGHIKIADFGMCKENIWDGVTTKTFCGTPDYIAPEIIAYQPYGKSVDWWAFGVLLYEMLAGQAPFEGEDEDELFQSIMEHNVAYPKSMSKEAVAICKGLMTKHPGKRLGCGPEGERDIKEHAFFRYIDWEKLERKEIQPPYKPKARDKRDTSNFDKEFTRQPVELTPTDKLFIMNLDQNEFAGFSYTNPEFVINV
Chain of Serine/threonine-protein kinase MARK1 (Homo sapiens) (Q9P0L2 whole entry, looked up): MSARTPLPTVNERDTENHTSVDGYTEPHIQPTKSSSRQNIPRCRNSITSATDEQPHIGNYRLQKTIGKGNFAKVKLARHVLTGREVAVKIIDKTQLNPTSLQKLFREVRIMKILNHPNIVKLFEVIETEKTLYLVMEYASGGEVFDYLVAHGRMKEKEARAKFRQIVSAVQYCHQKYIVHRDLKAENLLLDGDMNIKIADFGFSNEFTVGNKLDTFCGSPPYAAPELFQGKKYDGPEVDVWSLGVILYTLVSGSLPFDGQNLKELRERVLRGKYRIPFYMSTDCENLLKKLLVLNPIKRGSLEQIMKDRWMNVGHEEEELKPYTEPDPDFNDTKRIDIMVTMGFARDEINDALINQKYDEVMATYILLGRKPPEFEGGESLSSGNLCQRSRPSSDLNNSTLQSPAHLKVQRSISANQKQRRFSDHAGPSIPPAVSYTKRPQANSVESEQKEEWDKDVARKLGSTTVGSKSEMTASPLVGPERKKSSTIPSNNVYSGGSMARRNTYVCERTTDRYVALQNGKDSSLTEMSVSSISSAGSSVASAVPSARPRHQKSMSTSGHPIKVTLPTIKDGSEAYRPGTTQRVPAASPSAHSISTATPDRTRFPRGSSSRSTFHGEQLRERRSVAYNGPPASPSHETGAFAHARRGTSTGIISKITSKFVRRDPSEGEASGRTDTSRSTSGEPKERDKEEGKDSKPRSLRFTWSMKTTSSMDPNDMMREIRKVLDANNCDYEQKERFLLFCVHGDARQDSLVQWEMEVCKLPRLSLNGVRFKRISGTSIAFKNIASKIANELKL
Chain of eIF-2-alpha kinase GCN2 (Homo sapiens) (Q9P2K8 whole entry, the tested form may be a part): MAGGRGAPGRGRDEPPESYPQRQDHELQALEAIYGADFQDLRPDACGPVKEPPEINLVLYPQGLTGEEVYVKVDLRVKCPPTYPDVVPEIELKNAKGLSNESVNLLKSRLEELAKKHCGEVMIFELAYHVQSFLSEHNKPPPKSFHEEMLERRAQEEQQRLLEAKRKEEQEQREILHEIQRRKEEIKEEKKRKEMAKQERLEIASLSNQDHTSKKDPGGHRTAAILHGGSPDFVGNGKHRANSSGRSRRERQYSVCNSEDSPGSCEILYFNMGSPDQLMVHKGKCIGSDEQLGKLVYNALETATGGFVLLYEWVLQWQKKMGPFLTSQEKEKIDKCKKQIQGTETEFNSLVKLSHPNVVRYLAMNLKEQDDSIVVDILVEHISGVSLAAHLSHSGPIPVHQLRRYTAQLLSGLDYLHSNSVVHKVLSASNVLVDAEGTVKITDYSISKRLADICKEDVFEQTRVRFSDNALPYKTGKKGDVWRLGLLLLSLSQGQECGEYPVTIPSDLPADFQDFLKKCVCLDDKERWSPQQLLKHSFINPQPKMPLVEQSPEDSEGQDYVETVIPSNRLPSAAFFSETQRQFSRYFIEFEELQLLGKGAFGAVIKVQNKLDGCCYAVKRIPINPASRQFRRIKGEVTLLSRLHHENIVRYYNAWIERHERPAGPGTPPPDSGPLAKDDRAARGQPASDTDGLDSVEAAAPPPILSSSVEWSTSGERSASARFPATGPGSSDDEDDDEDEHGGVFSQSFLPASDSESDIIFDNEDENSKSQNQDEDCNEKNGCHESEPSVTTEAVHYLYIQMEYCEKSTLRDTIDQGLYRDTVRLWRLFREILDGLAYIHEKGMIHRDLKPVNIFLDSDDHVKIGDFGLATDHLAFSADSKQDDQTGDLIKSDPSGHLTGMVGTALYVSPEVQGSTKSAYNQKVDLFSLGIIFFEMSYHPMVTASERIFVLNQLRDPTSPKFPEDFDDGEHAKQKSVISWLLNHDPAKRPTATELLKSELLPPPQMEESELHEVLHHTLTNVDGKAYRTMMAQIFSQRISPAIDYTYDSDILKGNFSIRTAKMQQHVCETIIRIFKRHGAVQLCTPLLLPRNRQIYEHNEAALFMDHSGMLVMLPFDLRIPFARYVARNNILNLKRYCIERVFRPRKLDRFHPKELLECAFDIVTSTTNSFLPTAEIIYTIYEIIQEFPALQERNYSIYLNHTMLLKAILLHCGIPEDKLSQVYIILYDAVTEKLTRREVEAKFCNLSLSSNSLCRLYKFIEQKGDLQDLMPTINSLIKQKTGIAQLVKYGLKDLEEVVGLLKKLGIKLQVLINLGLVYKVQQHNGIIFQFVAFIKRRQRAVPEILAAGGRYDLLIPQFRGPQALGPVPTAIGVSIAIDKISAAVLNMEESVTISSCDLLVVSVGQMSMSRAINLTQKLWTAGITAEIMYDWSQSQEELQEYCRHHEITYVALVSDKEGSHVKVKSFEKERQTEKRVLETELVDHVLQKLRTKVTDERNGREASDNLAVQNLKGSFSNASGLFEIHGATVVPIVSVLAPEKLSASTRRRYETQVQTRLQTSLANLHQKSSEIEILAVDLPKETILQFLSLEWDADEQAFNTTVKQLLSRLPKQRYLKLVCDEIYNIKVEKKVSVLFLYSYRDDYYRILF

For `CNc1cc(Oc2cc(C(=O)Nc3cc(N4CCN(C)CC4)cc(C(F)(F)F)c3)ccc2C)ncn1`, the values for the inhibition in experiment [1] and in experiment [2] were -1.2% and 30.9%, respectively.

For the molecule `CCN1CCN(Cc2ccc(NC(=O)c3ccc(C)c(/C=C/c4cnc5[nH]ccc5c4OC)c3)cc2C(F)(F)F)CC1`, the inhibition in experiment [3] was determined as 44.6%; in experiment [4], 21.3%.

Regarding `CCN1CCN(Cc2ccc(NC(=O)c3ccc(C)c(Oc4ccnc5[nH]ccc45)c3)cc2C(F)(F)F)CC1`, in experiment [5], the inhibition entry is “inactive”. Further, in experiment [6], the inhibition at 10 µM worked out at 0.3%. Moreover, the inhibition in experiment [7] was -4.4%; in experiment [8], -3%.
